Counter-ions that a name gives are not always drawn. Like-named read-outs stand apart in the source and are kept apart here.
Key:
PRMT5-MEP50 = target: T1, PRMT5-MEP50 (Homo sapiens, UniProt O14744); assay: SPR binding assay (PRMT5.MTA and PRMT5·SAM surfaces); conditions: steady-state fit
T1 construct: biotin (in vivo biotinylated)
Experimental: In vivo biotinylated PRMT5-MEP50 was diluted to […] in 25 mM Bicine pH 7.6, 100 mM NaCl, 1 mM TCEP, and 0.05% Tween-20 and injected at 5 μl/min flow rate into flow cell 2 (FC2) of a Series S Sensor Chip SA (Cytiva) in a Biacore T200 or in a Biacore 8K plus (Cytiva). SPR screening was performed in MTA running buffer (25 mM Bicine pH 7.6, 100 mM NaCl, 1 mM TCEP, 20 µM MTA, 0.05% Tween-20 and 2% DMSO). The biotinylated PRMT5-MEP50 surface was equilibrated with MTA running buffer for 12 hours prior to the start. […] Subsequently, compound titration was repeated in SAM-running buffer (25 mM Bicine pH 7.6, 100 mM NaCl, 1 mM TCEP, 20 μM SAM, 0.05% Tween-20, and 2% DMSO). […] After double referencing, the steady-state response was extracted for each fragment concentration and was fit to the Langmuir isotherm equation to determine the equilibrium dissociation constant (KD).

PRMT5/MEP50 complex = target: T2, PRMT5/MEP50 complex (Homo sapiens, UniProt O14744); assay: PRMT5:MEP50 FlashPlate Assay (histone H4 peptide methylation); format: biochemical; conditions: 40 nM H4 (1-15) peptide, 1 μM SAM
T2 construct: purchased Reaction Biology Corporation
Experimental: The PRMT5 inhibitory activity of compounds of the present invention was determined using a PRMT5: MEP50 FlashPlate Assay and a PRMT5: MEP50 HotSpot Assay (Reaction Biology Corporation).
The assay uses purified human, PRMT5 enzyme to convert S-adenosyl-L-[methyl-3H]methionine plus histone H4 L-arginine to S-adenosyl-L-homocysteine plus histone H4 [methyl-3H]-L-arginine. The assay was carried out using Streptavidin-coated FlashPlates (Perkin Elmer), which contained a scintillant embedded in the plastic of the plate. The histone H4 peptide substrate was conjugated with biotin, which binds to the streptavidin-coated well of the plate, placing the H4 peptide in close proximity to the side well and the scintillant. The transfer of the tritiated methyl group from S-adenosyl-L-[methyl-3H]methionine to the bound histone H4 peptide generated a radiolabeled histone H4, which was quantitated by measuring in a scintillation counter to determine the activity of PRMT5 enzyme in the presence and absence of compound. […] Briefly, compounds of the present invention were solubilized in 100% DMSO at a highest concentration of 10 mM. […] Control samples lacking compound, PRMT5/MEP50 complex or various reaction components also were prepared and processed in parallel with compound test samples. SAH was used as a positive control for assay validation. To measure PRMT5 inhibitory activity, 3 nM PRMT5/MEP50 complex (Reaction Biology Corporation) was preincubated with test compound in assay buffer containing 40 nM histone H4 peptide (amino acids 1-15)-Biotin conjugate for 20 min at room temperature. The enzymatic reaction was initiated by adding 1 μM tritiated S-adenosyl methionine (final concentration) and the reaction is allowed to proceed for 20 min. The reaction was stopped and the amount of bound, tritiated H4 peptide in each sample was determined using a scintillation counter.

[1] = PRMT5.MTA surface, MTA running buffer (20 µM MTA), read-out: KD MTA
[2] = PRMT5·SAM surface, SAM running buffer (20 μM SAM), read-out: KD SAM

T1 sequence (O14744 whole entry): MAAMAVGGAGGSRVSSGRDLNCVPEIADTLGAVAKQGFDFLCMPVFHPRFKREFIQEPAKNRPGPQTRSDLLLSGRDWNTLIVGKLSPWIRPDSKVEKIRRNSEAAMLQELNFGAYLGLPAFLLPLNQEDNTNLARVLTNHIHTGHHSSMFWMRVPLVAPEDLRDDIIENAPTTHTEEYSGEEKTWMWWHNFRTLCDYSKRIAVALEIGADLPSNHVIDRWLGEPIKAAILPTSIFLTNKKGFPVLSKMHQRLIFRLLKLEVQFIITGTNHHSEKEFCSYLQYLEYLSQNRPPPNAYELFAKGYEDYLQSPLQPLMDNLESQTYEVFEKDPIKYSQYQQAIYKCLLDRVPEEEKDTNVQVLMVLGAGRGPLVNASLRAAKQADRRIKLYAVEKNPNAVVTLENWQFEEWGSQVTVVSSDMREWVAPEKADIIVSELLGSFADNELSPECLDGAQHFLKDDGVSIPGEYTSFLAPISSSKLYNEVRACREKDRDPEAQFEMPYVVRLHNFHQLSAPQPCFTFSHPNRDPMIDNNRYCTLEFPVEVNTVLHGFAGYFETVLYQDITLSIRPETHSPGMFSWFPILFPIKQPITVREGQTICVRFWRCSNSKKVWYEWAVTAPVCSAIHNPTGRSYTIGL
T1 sequence (Q9BQA1 whole entry partner): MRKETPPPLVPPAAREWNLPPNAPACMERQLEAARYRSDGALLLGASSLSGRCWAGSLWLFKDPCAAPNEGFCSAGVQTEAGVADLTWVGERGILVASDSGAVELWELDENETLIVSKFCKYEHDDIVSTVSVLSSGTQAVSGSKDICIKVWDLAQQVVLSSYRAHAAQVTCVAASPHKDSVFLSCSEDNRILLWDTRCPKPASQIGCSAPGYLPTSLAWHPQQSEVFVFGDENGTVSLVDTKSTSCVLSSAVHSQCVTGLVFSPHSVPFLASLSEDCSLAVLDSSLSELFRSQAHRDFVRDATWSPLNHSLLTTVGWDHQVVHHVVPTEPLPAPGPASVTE
T2 sequence (O14744 2-637 limits assumed): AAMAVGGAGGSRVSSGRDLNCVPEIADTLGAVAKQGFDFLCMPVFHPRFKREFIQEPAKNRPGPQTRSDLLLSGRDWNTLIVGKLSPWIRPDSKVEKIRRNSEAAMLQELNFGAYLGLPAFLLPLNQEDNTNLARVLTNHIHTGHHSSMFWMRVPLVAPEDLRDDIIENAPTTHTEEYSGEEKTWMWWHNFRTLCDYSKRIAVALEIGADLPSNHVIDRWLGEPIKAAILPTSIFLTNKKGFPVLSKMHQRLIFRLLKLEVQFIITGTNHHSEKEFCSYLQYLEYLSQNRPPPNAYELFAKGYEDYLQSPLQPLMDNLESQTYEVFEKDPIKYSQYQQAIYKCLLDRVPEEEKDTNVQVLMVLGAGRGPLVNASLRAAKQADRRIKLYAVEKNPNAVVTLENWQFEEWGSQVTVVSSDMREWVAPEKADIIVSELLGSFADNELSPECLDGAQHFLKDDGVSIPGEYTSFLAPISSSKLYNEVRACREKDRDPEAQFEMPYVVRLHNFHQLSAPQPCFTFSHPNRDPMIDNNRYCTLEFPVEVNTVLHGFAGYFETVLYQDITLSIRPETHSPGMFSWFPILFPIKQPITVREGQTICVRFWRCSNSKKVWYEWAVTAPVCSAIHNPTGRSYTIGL
T2 sequence (Q9BQA1 2-342 partner limits assumed): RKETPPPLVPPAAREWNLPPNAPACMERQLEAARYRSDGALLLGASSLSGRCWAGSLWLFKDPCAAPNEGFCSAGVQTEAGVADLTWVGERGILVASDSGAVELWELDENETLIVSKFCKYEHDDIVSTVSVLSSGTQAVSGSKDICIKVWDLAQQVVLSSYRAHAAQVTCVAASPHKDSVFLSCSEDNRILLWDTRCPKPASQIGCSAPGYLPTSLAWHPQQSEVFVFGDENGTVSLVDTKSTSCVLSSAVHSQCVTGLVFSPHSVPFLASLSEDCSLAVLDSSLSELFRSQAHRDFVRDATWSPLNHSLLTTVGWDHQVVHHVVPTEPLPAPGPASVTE

Row | Structure (SMILES) | Kd (PRMT5-MEP50; [1]) [µM] | Kd (PRMT5-MEP50; [2]) [µM] | IC50 (PRMT5/MEP50 complex; IC50 + 2 μM MTA, plus 2 μM MTA) [µM] | IC50 (PRMT5/MEP50 complex; absence of MTA, read-out: IC50) [µM]
1 | Cn1ccc(-c2ccc3c(c2)nc(N)n3C)n1 [Example 1-2, 1-methyl-5-(1-methyl-1H-pyrazol-3-yl)-1H-benzo[d]imidazol-2-amine] | 49 | 65.8 | > 300 | 
2 | Cc1ncc(CNc2cccc3c2nc(N)n3C)n1-c1ccccc1 [Example 1-12, 1-methyl-N4-((2-methyl-1-phenyl-1H-imidazol-5-yl)methyl)-1H-benzo[d]imidazole-2,4-diamine] | 2.45 | 19.7 | > 300 | 
3 | Cn1c(N)nc2c(Nc3cnc4c(c3)CCCC4)cccc21 [Example 1-19, 1-methyl-N4-(5,6,7,8-tetrahydroquinolin-3-yl)-1H-benzo[d]imidazole-2,4-diamine] | 74.2 | 203 | > 300 | 
4 | CC(C)c1nc(Nc2cccc3c2nc(N)n3C)ns1 [Example 1-42, N4-(5-isopropyl-1,2,4-thiadiazol-3-yl)-1-methyl-1H-benzo[d]imidazole-2,4-diamine] | 20.8 |  | > 300 | 
5 | COc1cccc(CN(C)c2ccc3c(c2)nc(N)n3C)c1 [Example 1-48, N5-(3-methoxybenzyl)-N5,1-dimethyl-1H-benzo[d]imidazole-2,5-diamine] | 39.1 | 108 |  | 
6 | Cn1cc(-c2ccc3c(c2)nc(N)n3C)cn1 [Example 1-53, 1-methyl-5-(1-methyl-1H-pyrazol-4-yl)-1H-benzo[d]imidazol-2-amine] | 44.6 | 187 | > 300 | 
7 | Cn1nccc1-c1ccc2c(c1)nc(N)n2C [Example 1-56, 1-methyl-5-(1-methyl-1H-pyrazol-5-yl)-1H-benzo[d]imidazol-2-amine] | 24.5 | 51.9 | > 300 | 
8 | CN(Cc1nnc2n1CCOC2)c1ccc2c(c1)nc(N)n2C [Example 1-83, N5-((5,6-dihydro-8H-[1,2,4]triazolo[3,4-c][1,4]oxazin-3-yl)methyl)-N5,1-dimethyl-1H-benzo[d]imidazole-2,5-diamine] | 0.089 | 41.8 | > 300 | 
9 | Cn1ncc(-c2cccc3c2nc(N)n3C)c1-c1ccccc1C#N [Example 1-87, 2-(4-(2-amino-1-methyl-1H-benzo[d]imidazol-4-yl)-1-methyl-1H-pyrazol-5-yl)benzonitrile hydrochloride] | 0.512 | 1.67 | 17.9 | > 300
10 | Cn1ncc(-c2ccc(Cl)c3c2nc(N)n3C)c1-c1c(F)cc2ccccc2c1C#N [Example 2-2, 2-[4-(2-amino-7-chloro-1-methyl-benzimidazol-4-yl)-2-methyl-pyrazol-3-yl]-3-fluoro-naphthalene-1-carbonitrile hydrochloride] | 0.151 | 0.679 | 0.527 | 10.7
11 | Cn1c(N)nc2c(Nc3cnc4c(c3)CCCC4)ccc(Cl)c21 [Example 2-4, 7-chloro-1-methyl-N^4-(5,6,7,8-tetrahydroquinolin-3-yl)-1H-benzo[d]imidazole-2,4-diamine hydrochloride] | 26.8 | 40.9 | > 300 | > 300
12 | Cn1c(N)nc2c(C3CCOC3)ccc(Cl)c21 (stereo not shown) [Example 2-8, 7-chloro-1-methyl-4-tetrahydrofuran-3-yl-benzimidazol-2-amine hydrochloride] | 24.7 |  | > 300 | > 300
13 | CN(c1cccnc1)c1cc(Cl)c2c(c1)nc(N)n2C [Example 2-9, 7-chloro-N5-1-dimethyl-N5-(3-pyridyl)benzimidazole-2,5-diamine hydrochloride] | 65.7 | 175 | > 300 | > 300
14 | Cn1c(N)nc2cc(Cc3cccnc3)cc(Cl)c21 [Example 2-10, 7-chloro-1-methyl-5-(3-pyridylmethyl)benzimidazol-2-amine hydrochloride] | 1.52 | 48.4 | 97.6 | > 300
15 | Cn1cc(Cc2cc(C#N)c3c(c2)nc(N)n3C)cn1 [Example 3-6, 2-amino-3-methyl-6-[ (1-methylpyrazol-4-yl)methyl]benzimidazole-4-carbonitrile] | 0.179 | 1.94 | 44.4 | > 300

The next lines start with the values.

Row | Kd (PRMT5-MEP50; [1]) [µM] | Kd (PRMT5-MEP50; [2]) [µM] | IC50 (PRMT5/MEP50 complex; IC50 + 2 μM MTA, plus 2 μM MTA) [µM] | IC50 (PRMT5/MEP50 complex; absence of MTA, read-out: IC50) [µM] | Structure (SMILES)
16 | 0.513 | 35.6 | 110 | > 300 | Cn1c(N)nc2cc(Cc3cccnc3)cc(C#N)c21 [Example 3-2, 2-amino-3-methyl-6-(3-pyridylmethyl)benzimidazole-4-carbonitrile]
17 | 0.187 | 2.75 | 17.6 | 134 | Cn1c(N)nc2cc(Cc3ccccn3)cc(C#N)c21 [Example 3-3, 2-amino-3-methyl-6-(2-pyridylmethyl)benzimidazole-4-carbonitrile]
18 | 1.14 | 2.77 | > 300 | > 300 | Cn1nc(-c2cc(C#N)c3c(c2)nc(N)n3C)c2cnccc21 [Example 3-5, 2-amino-3-methyl-6-(1-methylpyrazolo[4,3-c]pyridin-3-yl)benzimidazole-4-carbonitrile]
19 | 4.43 | 10.2 | > 300 | > 300 | Cn1nccc1Cc1cc(C#N)c2c(c1)nc(N)n2C [Example 3-8, 2-amino-3-methyl-6-[ (2-methylpyrazol-3-yl)methyl]benzimidazole-4-carbonitrile]
20 | 0.879 | 3.67 | 16.9 | 219 | Cn1c(N)nc2cc(Cc3ccc4ccncc4c3)cc(C#N)c21 [Example 3-9, 2-amino-6-(7-isoquinolylmethyl)-3-methyl-benzimidazole-4-carbonitrile]
21 | 7.51 | 23.6 | > 300 | > 300 | Cn1c(N)nc2cc(C(=O)c3cccnc3)cc(C#N)c21 [Example 3-16, 2-amino-3-methyl-6-(pyridine-3-carbonyl)benzimidazole-4-carbonitrile]
22 | 16.3 | 79.6 |  |  | COc1c(Cc2cccnc2)cc(C#N)c2c1nc(N)n2C [Example 3-22, 2-amino-7-methoxy-3-methyl-6-(3-pyridylmethyl)benzimidazole-4-carbonitrile hydrochloride]
23 | 16.9 | 32.5 |  |  | Cn1c(N)nc2c(Nc3cnc4c(c3)CCCC4)ccc(C#N)c21 [Example 3-30, 2-amino-1-methyl-4-((5,6,7,8-tetrahydroquinolin-3-yl)amino)-1H-benzo[d]imidazole-7-carbonitrile]
24 |  |  | 17.8 | 198 | CCc1cc(-c2cnn(C)c2-c2ccccc2C#N)c2nc(N)n(C)c2c1 [Example 6-3, 2-[4-(2-amino-6-ethyl-1-methyl-benzimidazol-4-yl)-2-methyl-pyrazol-3-yl]benzonitrile hydrochloride]

From patent US20260109709A1 (MIRATI THERAPEUTICS, INC., priority 2021, published 2026)
